Several values for one entry are separate records, joined by “and”; a condition that tells them apart may be missing. Equal values may be shown once.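 Results reflect a 48-hour exposure of cells in 96-well plates to compound at five concentrations. GI50 = concentration required for 50% inhibition of growth. TGI is the concentration that stops growth completely.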
What was measured:
Assay in all cases: NCI anticancer screen, dose series, 48 h
[1] = tested on: UO-31 renal
[2] = tested on: SNB-75 CNS
[3] = tested on: CCRF-CEM leukemia
[4] = tested on: NCI-H226 lung
[5] = tested on: HS 578T breast
[6] = tested on: 786-0 renal
[7] = tested on: KM12 colon
[8] = tested on: OVCAR-8 ovarian
[9] = tested on: SN12C renal
[10] = tested on: IGROV1 ovarian

Compound	GI50 [1]	TGI [1]	GI50 [2]	TGI [2]	GI50 [3]	TGI [3]	GI50 [4]	TGI [4]	GI50 [5]	TGI [5]	GI50 [6]	TGI [6]	GI50 [7]	TGI [7]	GI50 [8]	TGI [8]	GI50 [9]	TGI [9]	GI50 [10]	TGI [10]
CC1(C)N=C(N)N=C(N)N1c1ccc(OCCCNC(=O)Nc2ccc(S(=O)(=O)F)cc2)c(Cl)c1	69.5 µM	> 100 µM	1.02 µM	50 µM	0.208 µM	> 100 µM	11.2 µM	> 100 µM	4.6 µM	> 78.8 µM	0.417 µM	> 100 µM	0.504 µM	> 100 µM	0.697 µM	> 100 µM	0.111 µM	> 100 µM	0.281 µM	> 100 µM
Cc1ccc(NC(=O)c2ccc(CN3CCN(C)CC3)cc2)cc1Nc1nc(-c2cccnc2)cs1	12.4 µM and 6.42 µM	26.9 µM and > 10 µM	14.8 µM and 7.43 µM	28.5 µM and > 10 µM	4.14 µM and 4.81 µM	28.1 µM and > 10 µM	7.94 µM and 4.12 µM	29.6 µM and > 10 µM	8.45 µM and 3.52 µM	41.6 µM and > 10 µM	3.53 µM and 2.84 µM	11.5 µM and 7.92 µM	9.85 µM and 6.72 µM	23.2 µM and > 10 µM	6.91 µM and 3.65 µM	19.8 µM and > 10 µM	13.9 µM and > 10 µM	36 µM and > 10 µM	15 µM and 7.66 µM	35.6 µM and > 10 µM
CCOC(=O)c1noc2c1CCc1c-2cn(Cc2ccc(OC)cc2)c1-c1cc(OC)c(OC)c(OC)c1	3.44 µM	> 100 µM	3.65 µM	> 100 µM	1.04 µM	> 100 µM	> 100 µM	> 100 µM	2.99 µM	> 100 µM	3.65 µM	> 100 µM	0.91 µM	> 100 µM	3.04 µM	> 100 µM	3.92 µM	> 100 µM	2.45 µM	> 100 µM
Cn1cc(-c2ccc3nc(-c4ccc(CC(=O)Nc5cc(C(C)(C)C)no5)cc4)cnc3c2)cn1	0.0521 µM	0.269 µM	0.0161 µM	> 0.84 µM	0.692 µM	> 3 µM	0.0444 µM	> 3 µM	0.024 µM	> 3 µM	0.0375 µM	> 3 µM	0.00173 µM	> 3 µM	0.0548 µM	> 3 µM	0.0268 µM	> 3 µM	0.013 µM	> 1.21 µM
O=C(CCCc1ccc(N(CCCl)CCCl)cc1)NCc1ccccc1	5.43 µM	39.1 µM	3.49 µM	33 µM	3.24 µM	25.4 µM	14.6 µM	47.2 µM	15.6 µM	> 100 µM	3.32 µM	23.3 µM	12.3 µM	52.1 µM	8.11 µM	> 100 µM	4.41 µM	> 100 µM	13.8 µM	43.9 µM

Source: PubChem BioAssay (NCI)
